Measurements: article PMC9241695, “Selective Metal Chelation by a Thiosemicarbazone Derivative Interferes with Mitochondrial Respiration and Ribosome Biogenesis in Candida albicans” (Microbiology Spectrum, 2022)
In brackets after ≈: the same amount, converted by molar mass. Like-named read-outs stand apart in the source and are kept apart here.

Key:
Experiment in all cases: Antifungal susceptibility testing, microbroth dilution MIC
Type in all cases: cell-based
[1] = tested on: C. albicans SC5314; details: Candida albicans, read-out: MIC (μg/mL) against fungi SC5314
Source text: (§1) Compound library. The thiosemicarbazone derivatives Triapine and COTI-2 were purchased from Med Chem Express (MCE). The other 87 thiosemicarbazones used in this study were previously synthesized by our collaborators (1, 2). Their structures are shown in Table 1 and Table S1 to help the reader clearly understand the relationship between structure and activity.
(§2) Strains and culture conditions. Clinically derived C. albicans isolates, including G5, F5, and Gu5, were kindly provided by Professor Joachim Morschhäuser of the University of Würzburg. Other clinical C. albicans isolates were kindly donated by Professor Qingguo Qi of Shandong University and Qianfoshan Hospital of Shandong Province Other Candida strains were obtained from Jinan Central Hospital.
The zap1 mutant and its complemented strain were kindly provided by Professor Aaron P. Mitchell of Carnegie Mellon University (3). The C. neoformans strains used in this study was kindly donated by Professor Guojian Liao of Southwest University and A. fumigatus strain used in this study was provided by Professor Ling Lu of Nanjing Normal University. Before in vitro and in vivo experiments, all C. albicans strains were grown on YPD agar plates. After culturing at 30°C for 24 h, colonies of each strain were cultured in liquid YPD medium at 30°C with continuous shaking […]
(§3) Antifungal susceptibility testing. To determine in vitro antifungal activities, the microbroth dilution method was carried out in RPMI1640 medium according to the guidelines of the Clinical and Laboratory Standards Institute (4, 5). The initial concentration in RPMI1640 medium was 1 × 10^3 CFU/mL for the C. albicans and C. neoformans suspensions but 1 × 10^4 CFU/mL for A. fumigatus. The range of final drug concentrations was 0.0156–64 μg/mL. The plates were incubated at35°C for 24 […]
(§4) h (for C. albicans, C. krusei, C. tropicalis, C. parapsilosis) or 48 h (for C. neoformans, A. fumigatus). The MIC was determined based on visible growth inhibition compared with the control. All experiments were performed in duplicate. […]

[2] = tested on: A. fumigatus AF293; details: Aspergillus fumigatus, read-out: MIC (μg/mL) against fungi AF293
Source text: as §1, §2
(§5) The zap1 mutant and its complemented strain were kindly provided by Professor Aaron P. Mitchell of Carnegie Mellon University (3). The C. neoformans strains used in this study was kindly donated by Professor Guojian Liao of Southwest University and A. fumigatus strain used in this study was provided by Professor Ling Lu of Nanjing Normal University. […]
as §3, §4

[3] = tested on: C. neoformans H99; details: Cryptococcus neoformans, read-out: MIC (μg/mL) against fungi H99
Source text: as §1, §2, §5, §3, §4

Which MIC ([1]; SC5314, 24 h) does the source give for `C/C(=N\NC(=S)Nc1ccccc1)c1ccccn1` [Compound 19ac] here?
Its MIC is 2 µg/mL (≈ 7.4 µM).

What about the MIC ([2]; AF293, 48 h) of the same molecule?
Its MIC is 16 µg/mL (≈ 59.2 µM).

And the MIC ([3]; H99, 48 h)?
The MIC was 0.25 µg/mL (≈ 0.925 µM).

How did the MIC ([1]; SC5314, 24 h) turn out when `CCC/C(=N\NC(=S)Nc1ccccc1Br)c1ccccn1` [Compound 19v] was run?
The MIC was 1 µg/mL (≈ 2.65 µM).

And the MIC ([2]; AF293, 48 h)?
Its MIC is 4 µg/mL (≈ 10.6 µM).

And the MIC ([3]; H99, 48 h)?
Its MIC is 0.25 µg/mL (≈ 0.663 µM).

With `NC(=S)NN=Cc1ncccc1N` [Triapine, 3-aminopyridine-2-carboxaldehyde thiosemicarbazone, reference compound] as the molecule, how does the MIC ([1]; SC5314, C. albicans wild-type strain, RPMI1640, 35°C, 24 h) read?
The MIC was 32 µg/mL (≈ 164 µM).

What about the MIC ([2]; AF293, standard strain of A. fumigatus, 48 h) of the same molecule?
Its MIC is 32 µg/mL (≈ 164 µM).

And the MIC ([3]; H99, C. neoformans wild-type strain, 48 h)?
The MIC was 4 µg/mL (≈ 20.5 µM).
